Reference: ChEMBL document CHEMBL1133572, “Protease inhibitors: current status and future prospects” (J Med Chem, 2000)
Structures can show the parent of a compound that is named as a salt. Residues, ends and D or L forms follow the SMILES beside them. *: point of attachment. Cbz = O=C(OCc1ccccc1)*; CF3 = FC(F)(F)*; Moc = COC(=O)*

How the values were obtained:
[1] = oral bioavailability in standard iv / po dogs; assay type: ADME, organism-based, Canis lupus familiaris; details: dog, in vivo, read-out: Bioavailabiility
Caspase-1 = target: T1, Caspase-1 (Homo sapiens, UniProt P29466); assay: The binding affinity against IL-1 beta converting enzyme
T1 sequence (P29466 whole entry): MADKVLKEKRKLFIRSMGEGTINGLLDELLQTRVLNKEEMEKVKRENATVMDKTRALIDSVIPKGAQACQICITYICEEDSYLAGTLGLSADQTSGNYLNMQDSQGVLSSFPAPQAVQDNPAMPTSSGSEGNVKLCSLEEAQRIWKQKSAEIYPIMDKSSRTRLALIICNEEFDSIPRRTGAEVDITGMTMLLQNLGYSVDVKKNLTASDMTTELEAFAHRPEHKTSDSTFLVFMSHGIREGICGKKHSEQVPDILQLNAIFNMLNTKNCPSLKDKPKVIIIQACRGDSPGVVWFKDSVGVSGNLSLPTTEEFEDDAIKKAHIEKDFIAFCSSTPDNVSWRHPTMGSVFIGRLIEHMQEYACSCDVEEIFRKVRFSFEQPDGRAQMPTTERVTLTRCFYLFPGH

[2] = Inhibitory concentration against Aspartic proteases.
Cathepsin D = Cathepsin D (Homo sapiens, UniProt P07339); assay: Inhibitory concentration against Human cathepsin D.
Cathepsin D, sequence (P07339 65-162 limits assumed): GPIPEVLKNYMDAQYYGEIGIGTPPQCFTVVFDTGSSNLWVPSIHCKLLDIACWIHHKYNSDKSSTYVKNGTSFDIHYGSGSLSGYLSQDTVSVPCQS
Cathepsin D, sequence (P07339 169-412 limits assumed): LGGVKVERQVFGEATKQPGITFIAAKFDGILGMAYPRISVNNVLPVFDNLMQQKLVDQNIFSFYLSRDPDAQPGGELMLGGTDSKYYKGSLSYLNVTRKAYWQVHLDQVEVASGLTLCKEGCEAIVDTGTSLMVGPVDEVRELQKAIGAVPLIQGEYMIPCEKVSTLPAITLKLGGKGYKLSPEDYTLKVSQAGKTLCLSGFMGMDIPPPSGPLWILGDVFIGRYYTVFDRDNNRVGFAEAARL

[3] = target: T2, Human rhinovirus A protease (Human rhinovirus sp., UniProt Q4U254)
T2 sequence (Q4U254 whole entry): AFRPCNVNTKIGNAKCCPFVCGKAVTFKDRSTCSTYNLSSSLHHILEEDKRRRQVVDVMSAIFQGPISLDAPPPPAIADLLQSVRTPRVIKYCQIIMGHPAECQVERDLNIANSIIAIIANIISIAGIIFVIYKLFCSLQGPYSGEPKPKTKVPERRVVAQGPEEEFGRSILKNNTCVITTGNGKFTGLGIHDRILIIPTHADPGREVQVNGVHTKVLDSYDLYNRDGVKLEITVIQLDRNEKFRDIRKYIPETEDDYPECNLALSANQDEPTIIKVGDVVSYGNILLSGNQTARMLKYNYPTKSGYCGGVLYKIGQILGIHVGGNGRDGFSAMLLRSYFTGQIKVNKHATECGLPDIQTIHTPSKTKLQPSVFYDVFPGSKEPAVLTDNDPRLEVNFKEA

[4] = target: T3, Human rhinovirus A protease (Human rhinovirus sp.) (UniProt Q4U254); assay: The toxic concentration against Protease 3C
T3 sequence (whole entry): T2 sequence (Q4U254 whole entry)

[5] = target: T2, Human rhinovirus A protease; remark: listed apart in the source
Cathepsin B = Cathepsin B (Homo sapiens, UniProt P07858); assay: Inhibitory activity against Cathepsin B
Procathepsin L = Procathepsin L (Homo sapiens, UniProt P07711); assay: Inhibitory activity against cathepsin L, lysosomal cysteine protease
Procathepsin L, sequence (P07711 whole entry): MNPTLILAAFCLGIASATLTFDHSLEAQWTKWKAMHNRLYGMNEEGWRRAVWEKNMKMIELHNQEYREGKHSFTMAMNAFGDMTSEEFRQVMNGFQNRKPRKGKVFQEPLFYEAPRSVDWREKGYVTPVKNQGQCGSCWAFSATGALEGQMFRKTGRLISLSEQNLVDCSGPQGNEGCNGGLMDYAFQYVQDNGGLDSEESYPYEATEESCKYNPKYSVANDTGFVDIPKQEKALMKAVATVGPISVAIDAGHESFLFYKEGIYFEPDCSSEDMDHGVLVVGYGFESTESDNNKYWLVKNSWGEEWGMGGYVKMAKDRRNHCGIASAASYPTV

[6] = Inhibitory activity against alpha Chymotrypsinogen
[7] = target: Calpain-2 catalytic subunit (Homo sapiens, UniProt P17655); assay: Inhibitory activity against Calpain 2
Calpain-2 catalytic subunit, sequence (P17655 whole entry): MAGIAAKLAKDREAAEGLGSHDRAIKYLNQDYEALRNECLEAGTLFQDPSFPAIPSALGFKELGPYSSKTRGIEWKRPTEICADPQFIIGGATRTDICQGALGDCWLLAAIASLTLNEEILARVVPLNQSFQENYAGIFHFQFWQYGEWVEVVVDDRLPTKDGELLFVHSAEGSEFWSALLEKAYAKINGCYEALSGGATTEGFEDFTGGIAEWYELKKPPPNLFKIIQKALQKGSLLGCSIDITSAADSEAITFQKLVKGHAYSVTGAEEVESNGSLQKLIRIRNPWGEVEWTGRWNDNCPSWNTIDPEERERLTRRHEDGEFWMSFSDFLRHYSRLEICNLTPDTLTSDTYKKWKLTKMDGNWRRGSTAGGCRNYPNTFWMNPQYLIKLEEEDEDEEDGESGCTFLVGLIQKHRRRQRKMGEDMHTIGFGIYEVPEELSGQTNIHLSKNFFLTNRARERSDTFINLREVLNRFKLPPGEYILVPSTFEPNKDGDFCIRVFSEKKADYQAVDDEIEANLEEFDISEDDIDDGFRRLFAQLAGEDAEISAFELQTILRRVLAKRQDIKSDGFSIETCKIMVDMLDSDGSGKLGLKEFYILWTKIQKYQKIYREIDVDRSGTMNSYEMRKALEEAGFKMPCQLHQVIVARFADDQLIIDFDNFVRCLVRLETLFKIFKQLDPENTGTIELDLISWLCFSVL

[8] = The effective dose required for 50% inhibition of elastase.; assay type: functional
[9] = target: Cathepsin K (Homo sapiens) (UniProt P43235); assay: Inhibition of Cathepsin K.
Cathepsin K (Homo sapiens), sequence (P43235 whole entry): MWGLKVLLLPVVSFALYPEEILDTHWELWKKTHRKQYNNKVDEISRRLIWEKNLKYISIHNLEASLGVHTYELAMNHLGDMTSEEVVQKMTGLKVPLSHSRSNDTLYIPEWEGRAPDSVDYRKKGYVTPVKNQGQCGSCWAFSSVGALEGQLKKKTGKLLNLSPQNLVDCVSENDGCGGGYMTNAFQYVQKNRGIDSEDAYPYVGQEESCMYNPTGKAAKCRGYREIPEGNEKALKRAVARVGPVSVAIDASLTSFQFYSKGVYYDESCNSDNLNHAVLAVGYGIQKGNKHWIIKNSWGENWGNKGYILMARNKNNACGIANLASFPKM

MT4 = assay: cells; details: Homo sapiens
[10] = Cmax value in the period of […] hr after dosing, when administered with ritonavir.; assay type: ADME, organism-based; details: in vivo
[11] = Cmax value in the period of […] hr after dosing.; assay type: ADME, organism-based; details: in vivo
Coagulation factor X = Coagulation factor X (Homo sapiens, UniProt P00742)
Coagulation factor X, sequence (P00742 41-179 limits assumed): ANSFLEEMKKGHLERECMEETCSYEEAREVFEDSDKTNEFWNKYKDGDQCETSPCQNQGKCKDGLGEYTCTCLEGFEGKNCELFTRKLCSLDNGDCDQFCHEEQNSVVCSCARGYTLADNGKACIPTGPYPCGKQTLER
Coagulation factor X, sequence (P00742 235-488 limits assumed): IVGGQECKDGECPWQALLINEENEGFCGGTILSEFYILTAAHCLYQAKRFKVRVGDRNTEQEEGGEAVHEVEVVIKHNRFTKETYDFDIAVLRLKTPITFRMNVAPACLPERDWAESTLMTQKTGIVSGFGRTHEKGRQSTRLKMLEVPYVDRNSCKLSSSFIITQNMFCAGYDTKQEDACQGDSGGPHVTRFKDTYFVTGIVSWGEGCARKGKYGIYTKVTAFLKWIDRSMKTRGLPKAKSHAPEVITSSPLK

Serine protease 1 = Serine protease 1 (Homo sapiens, UniProt P07477); assay: Binding affinity against trypsin.
Serine protease 1, sequence (P07477 whole entry): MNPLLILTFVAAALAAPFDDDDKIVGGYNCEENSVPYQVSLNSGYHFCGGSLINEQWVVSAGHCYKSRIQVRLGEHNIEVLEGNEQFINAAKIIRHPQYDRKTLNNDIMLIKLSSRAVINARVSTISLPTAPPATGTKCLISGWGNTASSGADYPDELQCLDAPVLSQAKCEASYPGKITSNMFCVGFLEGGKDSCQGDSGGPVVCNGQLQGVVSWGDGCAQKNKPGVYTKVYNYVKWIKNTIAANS

Plasma kallikrein = Plasma kallikrein (Homo sapiens, UniProt P03952); assay: Binding affinity against plasma kallikrein.; assay type: cell-free
Plasma kallikrein, sequence (P03952 20-390 limits assumed): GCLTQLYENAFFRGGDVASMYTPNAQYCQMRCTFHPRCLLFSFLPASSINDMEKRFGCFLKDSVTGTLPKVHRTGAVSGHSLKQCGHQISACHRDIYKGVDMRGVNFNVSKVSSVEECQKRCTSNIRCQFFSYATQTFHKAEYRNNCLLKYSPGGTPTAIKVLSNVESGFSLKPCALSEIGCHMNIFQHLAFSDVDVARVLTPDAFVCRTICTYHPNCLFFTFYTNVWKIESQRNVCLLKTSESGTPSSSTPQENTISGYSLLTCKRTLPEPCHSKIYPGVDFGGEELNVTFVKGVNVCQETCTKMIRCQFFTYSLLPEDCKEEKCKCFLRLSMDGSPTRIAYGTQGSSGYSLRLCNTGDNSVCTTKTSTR
Plasma kallikrein, sequence (P03952 391-638 limits assumed): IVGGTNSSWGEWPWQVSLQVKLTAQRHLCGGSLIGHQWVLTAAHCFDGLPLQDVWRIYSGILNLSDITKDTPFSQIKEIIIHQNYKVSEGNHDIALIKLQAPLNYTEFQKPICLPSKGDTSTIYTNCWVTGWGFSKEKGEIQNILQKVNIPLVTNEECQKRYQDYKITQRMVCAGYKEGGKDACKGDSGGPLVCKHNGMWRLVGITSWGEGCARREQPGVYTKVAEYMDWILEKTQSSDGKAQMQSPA

[12] = Inhibitory activity against complement mediated hemoyses in alternate pathway.; assay type: functional
[13] = Inhibitory activity against complement mediated hemoyses in classical pathway.; assay type: functional
Kallikrein-1 = Kallikrein-1 (Homo sapiens, UniProt P06870); assay: Binding affinity against pancreatic kallikrein.
Kallikrein-1, sequence (P06870 whole entry): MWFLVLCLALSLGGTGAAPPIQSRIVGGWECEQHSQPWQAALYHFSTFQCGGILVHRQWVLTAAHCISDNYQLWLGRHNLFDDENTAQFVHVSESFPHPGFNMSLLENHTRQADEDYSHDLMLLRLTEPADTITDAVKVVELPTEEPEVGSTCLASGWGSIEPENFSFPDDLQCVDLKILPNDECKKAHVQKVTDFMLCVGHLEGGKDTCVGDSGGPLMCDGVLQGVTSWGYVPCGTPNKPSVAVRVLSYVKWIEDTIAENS

Prothrombin = Prothrombin (Homo sapiens, UniProt P00734); assay: Binding affinity against plasma thrombin; assay type: cell-free
[14] = target: Complement C1r subcomponent (Homo sapiens, UniProt P00736); assay: Binding affinity against factor C1r.
Complement C1r subcomponent, sequence (P00736 18-463 limits assumed): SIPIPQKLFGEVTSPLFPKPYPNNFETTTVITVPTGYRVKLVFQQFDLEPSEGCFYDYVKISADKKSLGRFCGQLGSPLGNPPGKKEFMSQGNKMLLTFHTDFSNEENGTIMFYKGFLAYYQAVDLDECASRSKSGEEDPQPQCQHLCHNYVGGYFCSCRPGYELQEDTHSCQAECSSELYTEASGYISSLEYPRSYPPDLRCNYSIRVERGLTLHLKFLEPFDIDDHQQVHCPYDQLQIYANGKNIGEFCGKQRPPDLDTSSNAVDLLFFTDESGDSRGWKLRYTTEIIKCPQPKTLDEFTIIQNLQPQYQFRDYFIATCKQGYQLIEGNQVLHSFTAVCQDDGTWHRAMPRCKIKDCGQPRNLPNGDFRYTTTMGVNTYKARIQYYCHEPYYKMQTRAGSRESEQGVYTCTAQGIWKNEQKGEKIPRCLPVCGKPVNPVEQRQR
Complement C1r subcomponent, sequence (P00736 464-705 limits assumed): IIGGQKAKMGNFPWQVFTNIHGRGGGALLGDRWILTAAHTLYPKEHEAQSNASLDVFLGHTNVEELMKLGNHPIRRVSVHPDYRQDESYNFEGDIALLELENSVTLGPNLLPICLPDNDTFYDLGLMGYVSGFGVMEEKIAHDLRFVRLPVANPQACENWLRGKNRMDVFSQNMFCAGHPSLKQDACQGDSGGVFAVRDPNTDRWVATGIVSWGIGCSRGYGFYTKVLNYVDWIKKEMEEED

[15] = Cmax value at the period of 0-24 hr after 125 mg dose.; assay type: ADME, organism-based; parameters: dose 125 mg; details: in vivo
[16] = Cmax value at the period of 0-24 hr after 259 mg dose.; assay type: ADME, organism-based; parameters: dose 259 mg; details: in vivo
[17] = Oral absorption in rat; assay type: ADME, organism-based; details: in vivo, read-out: Absorption
[18] = Oral absorption in dog; assay type: ADME, organism-based, Canis lupus familiaris; details: in vivo, read-out: Absorption
[19] = Oral absorption in monkey; assay type: ADME; details: simiiformes, in vivo, read-out: Absorption
[20] = Oral absorption in ferret; assay type: ADME, organism-based, Mustela putorius furo; details: in vivo, read-out: Absorption
Renin = target: T4, Renin (Homo sapiens, UniProt P00797)
T4 sequence (P00797 whole entry): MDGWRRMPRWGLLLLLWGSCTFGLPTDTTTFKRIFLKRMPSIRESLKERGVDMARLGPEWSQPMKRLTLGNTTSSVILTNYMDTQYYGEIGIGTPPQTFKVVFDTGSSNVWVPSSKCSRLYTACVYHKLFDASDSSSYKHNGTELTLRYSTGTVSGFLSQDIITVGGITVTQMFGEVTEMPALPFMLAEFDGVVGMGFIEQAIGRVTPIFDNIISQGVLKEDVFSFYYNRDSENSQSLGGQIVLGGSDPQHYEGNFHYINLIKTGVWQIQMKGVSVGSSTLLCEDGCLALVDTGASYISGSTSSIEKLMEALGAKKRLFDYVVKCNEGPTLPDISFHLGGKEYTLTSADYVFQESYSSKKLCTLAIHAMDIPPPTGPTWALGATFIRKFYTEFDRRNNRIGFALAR

[21] = Oral bioavailability in human; assay type: ADME, organism-based; details: in vivo
Homo sapiens = species on record: Homo sapiens; assay: Half life in humans.; assay type: ADME, organism-based; details: in vivo
Tryptase [22] = target: T5, Tryptase (Homo sapiens, UniProt Q9BZJ3+Q15661+Q9NRR2); assay: The compound was tested for the zinc mediated inhibition.; assay type: protein assay
Tryptase [23] = target: T5, Tryptase; assay: zinc mediated inhibition in the presence of metal chelating agent EDTA.; assay type: protein assay
[24] = The in vivo activity ED50 (oral); assay type: functional
[25] = oral bioavailability in Hamsters; assay type: ADME, organism-based; details: cricetinae, in vivo, read-out: Bioavailabiility
[26] = The in vivo activity ED50 (iv); assay type: functional

In the case of `O=C[C@H](CC(=O)O)NC(=O)[C@@H]1CCCN2C(=O)CCC(NC(=O)c3ccccc3)C(=O)N12` (stereo partly drawn), the bioavailability [1] is reported as 17% and the Ki (Caspase-1) is reported as 5 nM.
For `CC(C)C[C@H](NC(=O)[C@H](C)NC(=O)C[C@H](O)[C@H](Cc1ccccc1)NC(=O)[C@@H](NC(=O)c1ccccn1)C(C)C)C(N)=O`, the IC50 [2] was 0.56 nM and the IC50 (Cathepsin D) was 21 nM.
With `CC(C)C[C@H](NC(=O)OCc1ccccc1)C(=O)N[C@@H](Cc1ccccc1)C(=O)N[C@H](C=O)CC(=O)N(C)C` (Cbz-Leu-Phe-Asp(NMe2)-aldehyde) the Ki [3] was 5 nM, the TC50 [4] was 63000 nM and the EC50 [5] was 1300 nM.
`O=C[C@H](Cc1ccc(O)cc1)NC(=O)[C@H](Cc1ccccc1)NC(=O)OCc1ccccc1` (Cbz-Phe-Tyr-aldehyde) showed an IC50 (Cathepsin B) of 85.1 nM, an IC50 (Procathepsin L) of 0.85 nM and an IC50 [6] of over 1 µg/mL. It also gave an IC50 [7] of 184 nM.
In the case of `CO[C@H]1C(=O)N2C(C(=O)N3CCC[C@H]3C(=O)O)=C(COC(C)=O)CS(=O)(=O)[C@H]12`, the ED50 [8] is reported as 5 µg animal-1.
Work on `CC(C)C[C@H](NC(=O)OCc1ccccc1)C(=O)NNC(=O)NNC(=O)[C@H](CC(C)C)NC(=O)OCc1ccccc1` yielded a Ki obs / [I] [9] of 3.1 M⁻¹ s⁻¹.
`Cc1cccc(C)c1OCC(=O)N[C@@H](Cc1ccccc1)[C@@H](O)C[C@H](Cc1ccccc1)NC(=O)[C@H](C(C)C)N1CCCNC1=O` [LOPINAVIR] gave an EC50 (MT4) of 100 nM, a Cmax at 8 h [10] of 5500 ng/mL and a Cmax at 8 h [11] of under 100 ng/mL.
`N=C(N)c1ccc2cc(OC(=O)c3ccc(NC4=NCCN4)cc3)ccc2c1` [SEPIMOSTAT MESYLATE] showed a Ki (Coagulation factor X) of 20400 nM, a Ki (Serine protease 1) of 290 nM and a Ki (Plasma kallikrein) of 570 nM. For the same compound, the IC50 [12] was 3500 nM, the IC50 [13] was 170 nM and the Ki (Kallikrein-1) was 610 nM. For the same compound, the Ki (Prothrombin) was 2500 nM and the Ki [14] was 6400 nM.
In the case of `CC(C)C[C@H](O)[C@H](O)[C@H](CC1CCCCC1)NC(=O)[C@H](Cc1cscn1)NC(=O)[C@H](Cc1ccccc1)CS(=O)(=O)N1CCN(C)CC1` [ZANKIREN], the Cmax [15] is reported as 430 ng/mL, the Cmax [16] is reported as 1150 ng/mL and the Fa [17] is reported as 24%. For the same compound, the Fa [18] was 53%, the Fa [19] was 8% and the Fa [20] was 32%.
With `CC(C)(C)S(=O)(=O)C[C@@H](Cc1ccccc1)C(=O)N[C@@H](Cc1cnc[nH]1)C(=O)N[C@@H](CC1CCCCC1)[C@@H](O)[C@@H](O)C1CC1` the Ki (Renin) was 0.7 nM and the bioavailability [21] was 0.2%.
For `CC1CNc2c(cccc2S(=O)(=O)N[C@@H](CCCNC(=N)N)C(=O)N2CC[C@@H](C)C[C@@H]2C(=O)O)C1` (stereo partly drawn) [ARGATROBAN], the T1/2 (Homo sapiens) was 40 h.
In the case of `N=C(N)c1ccc2nc(Cc3nc4ccc(C(=N)N)cc4[nH]3)[nH]c2c1.[Zn]`, the Ki (Tryptase [22]) is reported as 50 nM and the Ki (Tryptase [23]) is reported as 2500 nM.
Work on `COC(=O)N[C@H](C(=O)N1CCC[C@H]1C(=O)N[C@H](C(=O)C(F)(F)F)C(C)C)C(C)C` (Moc-Val-Pro-Val-CF3) yielded an ED50 [24] of 2 mg/kg, a bioavailability [25] of 75% and an ED50 [26] of 0.51 mg/kg.
